Source: patent US20070098685A1, “Methods and kits to treat chronic inflammatory immune diseases by administering a proteasome inhibitor and an interleukin 2 receptor agonist” (priority 2005, published 2007)
Like-named read-outs stand apart in the source and are kept apart here.

Tests used:
[1] = Animal models of immune disease; type: in vivo; conditions: 0.03 mg/kg dose
Description: Without being limited by any particular theory or mechanism, a preferred embodiment of the method is administering systemically a dose of a proteasome inhibitor that gives partial inhibition (20-30%) of red blood cell proteasome activity. In human subjects, a Velcade™ PS-341dose of 0.4 mg/m^2 gave 30% inhibition of blood cell proteasome activity after a single intravenous bolus injection; (Orlowski et al. 2002 J. Clin. Oncol. 20 pp. 4420-27).

[2] = animal models and human subjects; cited from earlier work
blood cell proteasome [3] = conditions: cited from earlier work
blood cell proteasome [4] = conditions: rats, cited from earlier work
[5] = humans, cited from earlier work
[6] = system: CD4Th1 T cell mediated inflammation; assay: Delayed type hypersensitivity (DTH) reaction in mice, ear swelling after topical DNFB; type: in vivo; conditions: PS 341 0.003 to 0.01 or 0.03 mg/kg co-administered with IL2 (4 ng), FIG. 2
Excerpt: FIG. 1 is a drawing of a protocol for induction and assay of delayed-type hypersensitivity (DTH) in mice, as a function of time from left to right. Groups of experimental animals are sensitized on two successive days (at time points indicated as days—5 and —4 in the Figure) by application of 2,4-dinitro-1-fluorobenzene (DNFB; obtained from Sigma, St. Louis, Mo) to footpads, the DNFB dissolved in acetone or acetone/olive oil. After an additional day (at time indicated as day—3) proteasome inhibitor PS 341 and interleukin 2 (IL 2) are administered by intraperitoneal injection (IP). Animals are challenged, elicited for a T cell response, with DNFB topically applied to a target tissue such as ears at a point in time […] after administration, the point in time indicated as day 0. Swelling of the target, i.e., ear marker organ or tissue is measured at subsequent time points, exemplified as day 1 in the Figure.
Groups of experimental and control mice are administered an IL2 dose which is a constant amount (4 ng) in each group with the exception of a group of control animals not administered IL2, and are administered an amount of PS 341 that is varied (from 0.003 to 0.01 or 0.03 mg/kg total weight) in each of the various experimental groups. A control group of mice is administered IL 2 alone (no PS 341). […]
Inflammation was measured by ear swelling after applying topical DNFB. […]

[7] = human subjects, 0.4 mg/m^2; cited from earlier work
[8] = cited from earlier work
[9] = cited from earlier work; remark: listed apart in the source
[10] = target: T1, high affinity IL2 receptor (Homo sapiens, UniProt P01589+P14784+P31785); conditions: high affinity IL2 receptor on activated T cells; cited from earlier work
T1 sequence (P01589 22-272): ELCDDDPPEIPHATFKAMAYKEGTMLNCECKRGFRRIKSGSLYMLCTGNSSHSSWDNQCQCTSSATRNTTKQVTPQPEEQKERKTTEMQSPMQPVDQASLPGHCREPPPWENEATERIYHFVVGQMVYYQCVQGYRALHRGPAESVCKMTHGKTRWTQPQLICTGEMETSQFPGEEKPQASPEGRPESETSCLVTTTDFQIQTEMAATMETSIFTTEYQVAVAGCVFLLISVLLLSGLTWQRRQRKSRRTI
T1 sequence (P14784 27-551): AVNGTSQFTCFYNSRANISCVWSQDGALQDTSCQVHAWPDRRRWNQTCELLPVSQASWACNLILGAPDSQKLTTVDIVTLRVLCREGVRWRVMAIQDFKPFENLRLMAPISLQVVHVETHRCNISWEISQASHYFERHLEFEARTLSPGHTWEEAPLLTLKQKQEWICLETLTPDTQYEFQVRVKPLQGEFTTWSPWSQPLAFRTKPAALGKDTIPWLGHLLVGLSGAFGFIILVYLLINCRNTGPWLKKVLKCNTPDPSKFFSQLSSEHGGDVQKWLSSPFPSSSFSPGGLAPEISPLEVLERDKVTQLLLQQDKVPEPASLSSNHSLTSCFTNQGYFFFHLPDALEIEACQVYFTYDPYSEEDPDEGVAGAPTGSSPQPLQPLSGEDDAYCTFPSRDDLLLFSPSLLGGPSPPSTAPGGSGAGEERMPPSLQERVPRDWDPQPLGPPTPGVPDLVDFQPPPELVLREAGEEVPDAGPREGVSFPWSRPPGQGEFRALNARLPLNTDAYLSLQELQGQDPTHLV
T1 sequence (P31785 23-369): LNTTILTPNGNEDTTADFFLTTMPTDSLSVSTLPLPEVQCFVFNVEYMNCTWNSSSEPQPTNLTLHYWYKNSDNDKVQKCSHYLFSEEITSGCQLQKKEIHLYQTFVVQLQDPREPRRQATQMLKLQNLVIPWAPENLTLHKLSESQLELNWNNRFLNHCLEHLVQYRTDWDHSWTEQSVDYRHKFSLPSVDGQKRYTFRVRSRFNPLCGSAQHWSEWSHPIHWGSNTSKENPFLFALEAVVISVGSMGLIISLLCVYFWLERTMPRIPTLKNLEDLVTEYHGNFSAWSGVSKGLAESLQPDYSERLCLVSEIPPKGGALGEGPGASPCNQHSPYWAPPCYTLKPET

[11] = in vivo; cited from earlier work

Molecule | therapeutic effect [1] | tolerability [1] | toxicity [2] | inhibition of blood cell proteasome activity (blood cell proteasome [3]; human subjects, 0.4 mg/m^2, single intravenous bolus injection) [%] | maximal blood cell proteasome inhibition (blood cell proteasome [3]; humans, 1.38 mg/m^2 intravenous bolus, one hour after dosing) [%] | partial proteasome inhibition (blood cell proteasome [4]; 0.03 mg/kg intravenous bolus dose) | maximal blood cell proteasome inhibition (blood cell proteasome [4]; 0.3 mg/kg intravenous bolus, one hour after dosing) [%] | half-life [5] | half-life ([5]; listed as Velcade) [h] | inhibition of DTH (ear swelling) [6] | therapeutic efficacy [7] | adverse events ([8]; human studies, doses that are 1 mg/m^2) | serious adverse events ([8]; human subjects, dose that causes partial inhibition of blood proteasome activity) | adverse events ([8]; human subjects, doses less than or equal to 0.4 mg/m^2, multiple administration) | tolerability ([9]; intravenous administration for extended periods) | tolerability ([9]; low doses (<20 million Units), repeated daily dosing for many weeks) | Kd [10] [pM] | half-life [11] [h]
CC(C)C[C@H](NC(=O)[C@H](Cc1ccccc1)NC(=O)c1cnccn1)B(O)O [PS-341, Pyz Phe boro leu; Pyz2,5 pyraninecarboxylic acid] | not effective therapeutically | well tolerated | free from substantial toxicity | 30 | 80 | 20-30% | 80 | approximately 24 hours | 24 | increasing inhibition of DTH | no significant therapeutic efficacy | adverse events are observed | does not cause serious adverse events | No adverse events were observed |  |  |  | 
des ala-1 serine 125 human interleukin 2 [IL2] |  |  |  |  |  |  |  |  |  |  |  |  |  |  | well tolerated | well tolerated | 10 | 1.5
